The values below come from patent US8163771B2, “11 β-HSD1 modulators” (Exelixis, Inc., priority 2008, dated 2012).

The target of the assay is T1, recombinant human 11 β-HSD1 (Homo sapiens, UniProt P28845).
T1 construct: made in house; host or cells: E. coli
T1 sequence (P28845 whole entry): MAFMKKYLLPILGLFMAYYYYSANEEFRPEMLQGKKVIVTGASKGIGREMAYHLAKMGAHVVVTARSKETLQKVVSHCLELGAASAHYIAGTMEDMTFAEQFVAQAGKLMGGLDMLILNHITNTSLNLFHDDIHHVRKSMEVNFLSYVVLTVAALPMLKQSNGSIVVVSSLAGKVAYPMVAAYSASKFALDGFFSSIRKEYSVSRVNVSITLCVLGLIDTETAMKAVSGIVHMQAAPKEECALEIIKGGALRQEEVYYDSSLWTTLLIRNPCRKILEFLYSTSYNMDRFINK
Kind of assay: 11 β-HSD1 SPA Assay (Scintillation Proximity Assay). It is filed as biochemical. The gist of the method:
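E. coli-expressed human enzyme (30-100 nM) with tritiated cortisone 40 nM and NADPH 1 mM in HEPES buffer pH7.4, 2 hours at room temperature. Stopped with protein A SPA beads carrying anti-cortisol antibody and glycyrrhetinic acid; counted after overnight incubation. IC50 from percent inhibition between no-enzyme and no-compound signals.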
In general terms: Scintillation proximity formats need no separation of bound from free tracer.
Broadly, the IC50 is the concentration needed to halve the response being measured. Turning to `CC(C)(Oc1ncc(Cl)cc1F)C(=O)N[C@H]1C[C@H]2CC[C@@H](C1)N2c1ccc(S(C)(=O)=O)cc1` [Example 195, 2-[(5-chloro-3-fluoropyridin-2-yl)oxy]-2-methyl-N-{8-[4-(methylsulfonyl)phenyl]-8-azabicyclo[3.2.1]oct-3-endo-yl}propanamide], the IC50 is < 2000 nM.

In the case of `CC(C)(Oc1ccc(C(F)(F)F)cn1)C(=O)N[C@H]1C[C@H]2CC[C@@H](C1)N2c1ccc(S(C)(=O)=O)cc1` [Example 196, 2-methyl-N-{8-[4-(methylsulfonyl)phenyl]-8-azabicyclo[3.2.1]oct-3-endo-yl}-2-{[5-(trifluoromethyl)pyridin-2-yl]oxy}propanamide], the half-maximal inhibitory concentration (IC50) was < 2000 nM.

In the case of `CC(C)(Oc1cc(Cl)c(Cl)cc1Cl)C(=O)N[C@H]1C[C@H]2CC[C@@H](C1)N2c1ccc(S(C)(=O)=O)cn1` [Example 197, 2-methyl-N-{8-[5-(methylsulfonyl)pyridin-2-yl]-8-azabicyclo[3.2.1]oct-3-endo-yl}-2-[(2,4,5-trichlorophenyl)oxy]propanamide], the 50% inhibitory concentration (IC50) is < 200 nM.

Take `CC(C)(Oc1cc(Cl)c(Cl)cc1Cl)C(=O)N[C@H]1C[C@H]2CC[C@@H](C1)N2c1ccc(S(N)(=O)=O)cn1` [Example 198, N-{8-[5-(aminosulfonyl)pyridin-2-yl]-8-azabicyclo[3.2.1]oct-3-endo-yl}-2-methyl-2-[(2,4,5-trichlorophenyl)oxy]propanamide]: the IC50 is < 200 nM.

As for `CC(C)(Oc1cc(Cl)c(Cl)cc1Cl)C(=O)N[C@H]1C[C@H]2CC[C@@H](C1)N2c1ccc(S(C)(=O)=O)cc1` [Example 199, 2-methyl-N-{8-[4-(methylsulfonyl)phenyl]-8-azabicyclo[3.2.1]oct-3-endo-yl}-2-[(2,4,5-trichlorophenyl)oxy]propanamide], the IC50 is < 200 nM.

Regarding `CC(C)(Oc1ccc(F)cc1F)C(=O)N[C@H]1C[C@H]2CC[C@@H](C1)N2c1ccc(S(C)(=O)=O)cn1` [Example 200, 2-[(2,4-difluorophenyl)oxy]-2-methyl-N-{8-[5-(methylsulfonyl)pyridin-2-yl]-8-azabicyclo[3.2.1]oct-3-endo-yl}propanamide], the IC50 was < 200 nM.

Take `CC(C)(Oc1ccc(Cl)cc1)C(=O)N[C@H]1C[C@H]2CC[C@@H](C1)N2c1ccc(S(C)(=O)=O)cn1` [Example 201, 2-[(4-chlorophenyl)oxy]-2-methyl-N-{8-[5-(methylsulfonyl)pyridin-2-yl]-8-azabicyclo[3.2.1]oct-3-endo-yl}propanamide]: the IC50 was < 200 nM.

On to `CC(C)(Oc1ccc(Cl)cc1)C(=O)N[C@H]1C[C@H]2CC[C@@H](C1)N2c1ccc(S(N)(=O)=O)cn1` [Example 202, N-{8-[5-(aminosulfonyl)pyridin-2-yl]-8-azabicyclo[3.2.1]oct-3-endo-yl}-2-[(4-chlorophenyl)oxy]-2-methylpropanamide], for which the IC50 was < 200 nM.

As to `CC(C)(Oc1ccc(Cl)cc1)C(=O)N[C@H]1C[C@H]2CC[C@@H](C1)N2c1ccc(S(C)(=O)=O)cc1` [Example 203, 2-[(4-chlorophenyl)oxy]-2-methyl-N-{8-[4-(methylsulfonyl)phenyl]-8-azabicyclo[3.2.1]oct-3-endo-yl}propanamide], the IC50 is < 2000 nM.

For the molecule `CC(C)(Oc1ccc(Cl)c(Cl)c1)C(=O)N[C@H]1C[C@H]2CC[C@@H](C1)N2c1ccc(S(C)(=O)=O)cn1` [Example 204, 2-[(3,4-dichlorophenyl)oxy]-2-methyl-N-{8-[5-(methylsulfonyl)pyridin-2-yl]-8-azabicyclo[3.2.1]oct-3-endo-yl}propanamide], the 50% inhibitory concentration (IC50) was < 200 nM.

Regarding `CC(C)(Oc1ccc(Cl)c(Cl)c1)C(=O)N[C@H]1C[C@H]2CC[C@@H](C1)N2c1ccc(S(N)(=O)=O)cn1` [Example 205, N-{8-[5-(aminosulfonyl)pyridin-2-yl]-8-azabicyclo[3.2.1]oct-3-endo-yl}-2-[(3,4-dichlorophenyl)oxy]-2-methylpropanamide], the 50% inhibitory concentration (IC50) was < 200 nM.
